Assay results published in patent US20220175761A1, “BI-LIGAND DRUG CONJUGATE AND USE THEREOF” (COHERENT BIOPHARMA (SUZHOU), LIMITED, priority 2019, published 2022).
Numbered stars: 1 amine (or outer) side, 2 acyl side, 3 side chain; on linkers, the order of the positions; unused ones are H or OH. Bridge positions count the residues as written; N and C are the ends. Square brackets hold non-standard residues; d marks the D form. Peptide text beside a SMILES is read from it. I, II: the chains in the order shown. * marks the point of attachment. ξ: configuration not given here. Hexanoyl(6-succinimido-3yl) = O=C1CC([*:1])C(=O)N1CCCCCC(=O)[*:2]; EuK = O=C(O)CC[C@H](NC(=O)N[C@@H](CCCCN*)C(=O)O)C(=O)O; Dolaproine = CO[C@@H]([C@@H]1CCCN1)[C@@H](C)C(=O)O; Dil = CC[C@H](C)[C@H](NC)[C@@H](CC(=O)O)OC; PABC = O=C(OCc1ccc(N[*:1])cc1)[*:2]; X1 = C[C@@H](N*)[C@@H](O)c1ccccc1; X2 = O=C(Cc1ccc(CN[*:1])cc1)[*:2]; PEG4 = NCCOCCOCCOCCOCCC(=O)O; NMeV = CN[C@H](C(=O)O)C(C)C; ξCit = NC(=O)NCCCC(N)C(=O)O; CO = O=C([*:1])[*:2]; ξV = CC(C)C(N)C(=O)O; Ahx = NCCCCCC(=O)O

How the values were obtained:
[1] = tested on: PANC-1 (human pancreatic cancer cells); assay: Inhibition of cell line proliferation, CCK8; assay type: cell-based
Protocol: (§1) Experimental operations: PANC-1 and CFPAC-1 cells were prepared in advance, counted, and plated in 96-well cell culture plates at a cell density of 4×10^4 cells/ml (100 μl/well); negative control and blank control wells were set on each plate. After adherent cell culture overnight, the diluted samples to be tested were added at 50 μl/well. The plates were placed in an incubator at 37° C., 5% CO2 and cultured for 68-72 hours. To each well, 15 μl (10% of the liquid volume in a well) of a color developing solution from CCK8 was added; and the plates were incubated at 37° C. for 45-70 minutes and each plate was read at 450 nm on a microplate reader. The data was edited using SoftMax Pro and a 4-P fitting curve was plotted.
(§2) Experimental operations: LNCaP, SK-BR-3, NCI-H226, CFPAC-1 and PANC-1 cells were prepared in advance and counted; with a culture medium (IMDM+10% FBS+1× L-Glutamine+1×P/S), the cells LNCaP, SK-BR-3 and CFPAC-1 were diluted to 4×10^4 cells/ml, NCI-H226 was diluted to 2.0×10^4 cells/ml and PANC-1 was diluted to 3.0×10^4 cells/ml; the diluted cell solution was plated in 96-well plates at 100 μl/well; and negative control and blank control wells were set on each plate. After adherent cell culture overnight, the diluted samples to be tested were added at 50 μl/well. The plates were placed in an incubator at 37° C., 5% CO2 and cultured for 68-72 hours. To each well, 15 μl (10% of the liquid volume in a well) of a color developing solution from CCK8 was added; and the plates were incubated at 37° C. for 45-70 minutes and each plate was read at 450 nm on a microplate reader. The data was edited using SoftMax Pro and a 4-P fitting curve was plotted.
as §2, with “Operations:” for “operations:”, “MDA-MB-468,” for “SK-BR-3, NCI-H226,”, “MDA-MB-468” for “SK-BR-3”, “cells/ml,” for “cells/ml, NCI-H226 was diluted to 2.0×10^4 cells/ml”

[2] = tested on: SK-BR-3 (human breast cancer cells); assay: Inhibition of cell line proliferation, CCK8; assay type: cell-based; conditions: for IC50 (MMAE)/IC50 (conjugate): SK-BR-3; for IC50: SK-BR-3, 68-72 hours, CCK8
Protocol: as §2
Experimental Operations: LNCaP, SK-BR-3, MDA-MB-468 and CFPAC-1 cells were prepared in advance and counted; with a culture medium (IMDM+10% FBS+1× L-Glutamine+1×P/S), the cells LNCaP, SK-BR-3, MDA-MB-468 and CFPAC-1 were diluted to 4×10^4 cells/ml; the diluted cell solution was plated in 96-well plates at 100 µl/well; and negative control and blank control wells were set on each plate. After adherent cell culture overnight, the diluted samples to be tested were added at 50 μl/well. The plates were placed in an incubator at 37° C., 5% CO2 and cultured for 68-72 hours. To each well, 15 μl (10% of the liquid volume in a well) of a color developing solution from CCK8 was added; and the plates were incubated at 37° C. for 45-70 minutes and each plate was read at 450 nm on a microplate reader. The data was edited using SoftMax Pro and a 4-P fitting curve was plotted.

[3] = tested on: CFPAC-1 (human pancreatic cancer cells); assay: Inhibition of cell line proliferation, CCK8; assay type: cell-based; conditions: for IC50 (MMAE)/IC50 (conjugate): CFPAC-1; for IC50: CFPAC-1, 68-72 hours, CCK8
[4] = tested on: LNCaP (human prostate cancer cells); assay: Inhibition of cell line proliferation, CCK8; assay type: cell-based; conditions: LNCaP; for IC50: 68-72 hours, CCK8
Text: Since different cells have different sensitivity to a cell proliferation inhibitory toxicity of the payload in a ligand conjugate, the quantitative analysis may be interfered occasionally. A series of cell lines with known expression levels of receptors of different ligands were selected and tested for the response to inhibitory effects of the cell proliferation of a ligand conjugate and a single payload. The IC50 ratio of a single payload to that of a ligand conjugate in same cell line were taken to remove such interference.
as §1, with “LNCaP” for “PANC-1”, “22RV1” for “CFPAC-1”, “cells/ml and 2.0×10^4 cells/ml, respectively” for “cells/ml”, “plotted. […]” for “plotted.”

[5] = tested on: NCI-H226 (human lung cancer cells); assay: Inhibition of cell line proliferation, CCK8; assay type: cell-based
Protocol: as §2
Experimental operations: NCI-H226, CFPAC-1 and MDA-MB-468 cells were prepared in advance and counted; MDA-MB-468 and CFPAC-1 cells were plated at a density of 2×10^4 cells/ml (100 μl/well) and NCI-H226 cells were plated at a density of 1×10^4 cells/ml (100 μl/well) in 96-well plates; and negative control and blank control wells were set on each plate. After adherent cell culture overnight, the diluted samples to be tested were added at 50 μl/well. The plates were placed in an incubator at 37° C., 5% CO2 and cultured for 68-72 hours. To each well, 15 μl (10% of the liquid volume in a well) of a color developing solution from CCK8 was added; and the plates were incubated at 37° C. for 45-70 minutes and each plate was read at 450 nm on a microplate reader. The data was edited using SoftMax Pro and a 4-P fitting curve was plotted.

[6] = tested on: HPAF-II (human pancreatic cancer cells); assay: Tumor growth inhibition in subcutaneous xenograft model (CDX); assay type: in vivo, BALB/c-nude mice
Protocol: (§3) Main CDX models: HPAF-II (human pancreatic cancer cells), NCI-H226 (human lung cancer cells) and SCLC-21H (small cell lung cancer cells)
(§4) The cells or tumor tissue mass were prepared and subcutaneously inoculated into the anterior right flank of BALB/c-nude mice. When the tumor volume expanded to 80-160 mm^3, a randomized grouping was performed, and a model control group and administration groups were set. The mice were administrated from the first day of grouping, wherein the administration dose was adjusted according to the latest weight measurement. The mice were administrated via tail vein injection at an administration volume of 10 μl/g. After grouping and administration, the effects of tumor growth and treatment on normal behaviors of animals, specifically including the activity of experimental animals, food intake and drinking status, weight gain or loss status, and other abnormal conditions in eyes, hair, etc., were monitored. After grouping and administration, the weight of mice was measured twice a week to calculate the rate of weight change; at the same time, the long diameter and short diameter of the tumor were measured with a vernier caliper, and the tumor volume, relative tumor proliferation rate, tumor volume inhibition rate and other indicators were calculated. The formula of tumor volume is TV=0.5 a×b^2, wherein a is […] the long diameter of a tumor and b is the short diameter of a tumor.

[7] = tested on: MDA-MB-468 (human breast cancer cells); assay: Inhibition of cell line proliferation, CCK8; assay type: cell-based
[8] = tested on: NCI-H226 (human lung cancer cells); assay: Tumor growth inhibition in subcutaneous xenograft model (CDX); assay type: in vivo, BALB/c-nude mice
Protocol: as §3, §4

[9] = tested on: SCLC-21H (small cell lung cancer cells); assay: as above; assay type: in vivo, BALB/c-nude mice; conditions: SCLC-21H CDX
Protocol: as §3, §4

Compound | IC50 (MMAE)/IC50 (conjugate) ([1]; PANC-1) | IC50 ([1]; PANC-1, 68-72 hours, CCK8) [nM] | IC50 (MMAE)/IC50 (conjugate) [2] | IC50 [2] [nM] | IC50 (MMAE)/IC50 (conjugate) [3] | IC50 [3] [nM] | IC50 ratio (MMAE/conjugate) [4] | IC50 [4] [nM] | IC50 (MMAE)/IC50 (conjugate) ([5]; NCI-H226) | IC50 ([5]; NCI-H226, 68-72 hours, CCK8) [nM] | anti-tumor growth effect (in words) [6] | IC50 (MMAE)/IC50 (conjugate) ([7]; MDA-MB-468) | IC50 ([7]; MDA-MB-468, 68-72 hours, CCK8) [nM] | anti-tumor growth effect (in words) [8] | anti-tumor growth effect (in words) [9]
CC[C@H](C)[C@@H]([C@@H](CC(=O)N1CCC[C@H]1[C@H](OC)[C@@H](C)C(=O)N[C@H](C)[C@@H](O)c1ccccc1)OC)N(C)C(=O)[C@@H](NC(=O)[C@H](C(C)C)N(C)C(=O)OCc1ccc(NC(=O)C(CCCNC(N)=O)NC(=O)[C@@H](NC(=O)CCCCCN2C(=O)CC(SC[C@@H](NC(=O)CCCCCNC(=O)[C@H](CCCCN)NC(=O)[C@H](CC(=O)O)NC(=O)[C@H](CC(=O)O)NC(=O)Cc3ccc(CNC(=O)NCCCC[C@H](NC(=O)N[C@@H](CCC(=O)O)C(=O)O)C(=O)O)cc3)C(=O)NCCOCCOCCOCCOCCC(=O)N[C@@H](CCCCN)C(=O)N[C@@H](CCC(=O)O)C(=O)N[C@@H](Cc3ccccc3)C(=O)N[C@@H](CC(C)C)C(=O)N[C@@H](Cc3cnc[nH]3)C(=O)N3CCC[C@H]3C(=O)N[C@@H](CO)C(=O)N[C@@H](CCCCN)C(=O)NC(C(=O)N[C@@H](CC(=O)O)C(=O)N[C@@H](CC(C)C)C(=O)N3CCC[C@H]3C(=O)N[C@@H](CCCNC(=N)N)C(=O)O)C(C)C)C2=O)C(C)C)cc1)C(C)C (stereo partly drawn) [CB-1020] (I: {EuK-CO}-[X2]DDK[Ahx][dC][PEG4]KEFLHPSK[ξV]DLPR-OH / II: V[ξCit][PABC][NMeV]V[Dil][Dolaproine]-X1; linker I:6-II:N via Hexanoyl(6-succinimido-3yl)) | 0.0044 | 458 | 0.0070 | 287 | 0.005 | 3000 | 0.0179 | 168 | 0.00384 | 1570 | obvious anti-tumor growth effect |  |  |  | 
CC[C@H](C)[C@@H]([C@@H](CC(=O)N1CCC[C@H]1[C@H](OC)[C@@H](C)C(=O)N[C@H](C)[C@@H](O)c1ccccc1)OC)N(C)C(=O)[C@@H](NC(=O)[C@H](C(C)C)N(C)C(=O)OCc1ccc(NC(=O)C(CCCNC(N)=O)NC(=O)[C@@H](NC(=O)CCCCCN2C(=O)CC(SC[C@@H](NC(=O)CCCCCNC(=O)[C@H](CCCCN)NC(=O)[C@H](CC(=O)O)NC(=O)[C@H](CC(=O)O)NC(=O)Cc3ccc(CNC(=O)NCCCC[C@H](NC(=O)N[C@@H](CCC(=O)O)C(=O)O)C(=O)O)cc3)C(=O)NCCOCCOCCOCCOCCC(=O)NCCCCC(N[C@@H](Cc3ccc(O)cc3)C(=O)N[C@@H](CO)C(=O)N[C@@H](Cc3c[nH]c4ccccc34)C(=O)N[C@@H](Cc3cnc[nH]3)C(=O)[C@H]3CCC(=O)N3)C(=O)N[C@@H](CC(C)C)C(=O)N[C@@H](CCCNC(=N)N)C(=O)N3CCC[C@H]3C(=O)CN)C2=O)C(C)C)cc1)C(C)C (stereo partly drawn) [CB-1320] |  |  | 0.016 | 93 | 0.014 | 1090 | 0.043 | 60 |  |  |  | 0.011 | 212 | obvious anti-tumor growth effect | obvious anti-tumor growth effect
